Reference: article PMC3499525 (PLoS ONE, 2012)

How the values were obtained:
[1] = system: phosphorylated p42 and p44 MAPK in neonatal rat ventricular myocytes (NRVM); assay: p42/44 MAPK activation in NRVM (Western blot); type: cell-based
Protocol: PC12 cells originated from rat pheochromocytoma purchased from ATCC, were grown to confluence in T75 flasks, containing DMEM (1000 mg/l glucose) and supplemented with 5% fetal calf serum (FCS), 10% horse serum, and a mixture of 1% of penicillin/streptomycin/nystatin [11]. NRVM cultures were prepared from ventricles of 1–2 day old Sprague-Dawley rats, as previously described (ethics number Il-106-11-2007). […]
(§1) Phosphorylation of MAPK was analyzed in cell lysates and the loading of the lanes normalized to levels of non-phospho MAPK.
PC12 cells or NRVM cultures were resuspended in RIPA (20 mM Tris–HCl pH 7.4, 200 mM NaCl, 1% Triton-X 100, 0.1% SDS, 0.2% sodium deoxycholate, 5 mM EDTA) containing cocktail protease inhibitors (Roche, Basel Switzerland). […] Protein content was determined using the Bradford method (Sigma Chemical Co. St. Louis, MO, USA).Equal amounts of sample were resolved on sodium dodecyl sulfate-polyacrylamide gel electrophoresis (SDS-PAGE) and blotted onto polyvinylidenedifluoride membranes (Millipore, Billerica, MA, USA). […] Quantification of the results was accomplished by measuring the optical density of the labeled bands from the autoradiograms, using the computerized imaging program Bio-1D (VilberLourmat Biotech. Bioprof., France). […]

[2] = system: phosphorylated p42 and p44 MAPK in PC12 cells; assay: p42/44 MAPK activation in PC12 cells (Western blot); type: cell-based, rat
Protocol: as §1
(§2) PC12 cells originated from rat pheochromocytoma purchased from ATCC, were grown to confluence in T75 flasks, containing DMEM (1000 mg/l glucose) and supplemented with 5% fetal calf serum (FCS), 10% horse serum, and a mixture of 1% of penicillin/streptomycin/nystatin [11]. NRVM cultures were prepared from ventricles of 1–2 day old Sprague-Dawley rats, as previously described (ethics number Il-106-11-2007). Briefly, the ventricles of the excised hearts were dissociated with 0.1% RDB, a protease isolated from fig tree extract (Institute of Biology, Nes-Ziona,Israel), and the dispersed cells were resuspended in F-10 culture medium containing 1 mM CaCl2, 100 U/mL penicillin-streptomycin, 5% FCS, 5% donor horse serum, and 25 mg of bromodeoxyuridine (5-bromo-2′-deoxyuridine, BrdU).Cell cultures were incubated at 37°C in a humid 5% CO2-95% air environment. For all experiments, cells were initially seeded in full-serum cultured media and then replaced into serum-free media containing the respective supplements.
PC12 cells or NRVM cultures were resuspended in RIPA (20 mM Tris–HCl pH 7.4, 200 mM NaCl, 1% Triton-X 100, 0.1% SDS, 0.2% sodium deoxycholate, 5 mM EDTA) containing cocktail protease inhibitors (Roche, Basel Switzerland). The lysates were precleared by centrifugation. Protein content was determined using the Bradford method (Sigma Chemical Co. St. Louis, MO, USA).Equal amounts of sample were resolved on sodium dodecyl sulfate-polyacrylamide gel electrophoresis (SDS-PAGE) and blotted onto polyvinylidenedifluoride membranes (Millipore, Billerica, MA, USA). Membranes were treated with blocking buffer (5% dry milk, 0.05% Tween 20 in TBS). Primary antibodies were diluted in the blocking buffer and incubated with membranes for 20 h at 4°C followed by incubation (1 h at room temperature) in dilutions of horseradish peroxidase-conjugated secondary antibodies in the same buffer. Following antibody incubations, membranes were washed in 0.5% Tween 20 TBS. Detection was achieved using Western blotting ECL reagent (Amersham, Pharmacia, Little Chalfort Buckinghamshire, UK). Quantification of the results was accomplished by measuring the optical density of the labeled bands from the autoradiograms, using the computerized imaging program Bio-1D (VilberLourmat Biotech. Bioprof., France). The values were normalized to β-actin intensity levels.

[3] = system: cleaved caspase 3 in NRVM; assay: Cleaved caspase 3 in serum-deprived NRVM (Western blot); type: cell-based, rat; settings: serum free medium, efaroxan 10 µM, TVP1022 20 µM
Protocol: NRVM cells were incubated in full serum medium for 24 h before replacing to serum free medium. […] A. Apoptotic nuclei were identified by TUNEL analysis. […] B. Representative Western blots and quantitative results of cleaved caspase 3 protein expression. The loading of the lanes was normalized to β-actin levels.
PC12 cells or NRVM cultures were resuspended in RIPA (20 mM Tris–HCl pH 7.4, 200 mM NaCl, 1% Triton-X 100, 0.1% SDS, 0.2% sodium deoxycholate, 5 mM EDTA) containing cocktail protease inhibitors (Roche, Basel Switzerland). The lysates were precleared by centrifugation. Protein content was determined using the Bradford method (Sigma Chemical Co. St. Louis, MO, USA).Equal amounts of sample were resolved on sodium dodecyl sulfate-polyacrylamide gel electrophoresis (SDS-PAGE) and blotted onto polyvinylidenedifluoride membranes (Millipore, Billerica, MA, USA). Membranes were treated with blocking buffer (5% dry milk, 0.05% Tween 20 in TBS). […] Quantification of the results was accomplished by measuring the optical density of the labeled bands from the autoradiograms, using the computerized imaging program Bio-1D (VilberLourmat Biotech. Bioprof., France). […]

[4] = system: neonatal rat ventricular myocytes (NRVM); assay: Serum deprivation-induced apoptosis in NRVM (TUNEL); type: cell-based; settings: serum free medium, efaroxan 10 µM pre-incubation, TVP1022 20 µM
Protocol: as §2, with “For all experiments, cells were initially seeded in full-serum cultured media and then replaced into serum-free media containing the respective supplements.” left out
In situ DNA fragmentation was performed by the terminal deoxynucleotidyl transferase-mediated deoxyuridine triphosphate-digoxigenin nick end labeling (TUNEL). […] Quantification of the apoptotic cells was calculated as the ratio of TUNEL-positive cells to the total number of cells in the same slide.
NRVM cells were incubated in full serum medium for 24 h before replacing to serum free medium. […] B. Representative Western blots and quantitative results of cleaved caspase 3 protein expression. […]

I2 imidazoline receptor = I2 imidazoline receptor binding assay ([3H]idazoxan); settings: [3H]idazoxan 2 nM, rat cerebral cortex
Excerpt: (§3) The specific ligand binding to the receptors is defined as the difference between the total binding and the nonspecific binding determined in the presence of an excess of unlabelled ligand, as described in Table 1.
(§4) The specific ligand binding to the receptors is defined as the difference between the total binding and the nonspecific binding determined in the presence of an excess of unlabelled ligand (Table 1). The IC50 values (concentration causing a half-maximal inhibition of control specific binding) and Hill coefficients (nH) were determined by non-linear regression analysis of the competition curves generated with mean replicate values using Hill equation curve fitting [Y = D+((A – D)/(1+(C/C50) nH)], where Y = specific binding, D = minimum specific binding, A = maximum specific binding, C = compound concentration, C50 = IC50, and nH = slope factor). This analysis was performed using SigmaPlot ® 4.0 for Windows ® (© 1997 by SPSS Inc.). The inhibition constants (Ki) were calculated using the Cheng Prusoffequation [Ki = IC50/(1+(L/KD)], where L = concentration of radioligand in the assay, and KD = affinity of the radioligand for the receptor).

I1 imidazoline receptor = I1 imidazoline receptor binding assay ([3H]clonidine); settings: [3H]clonidine 15 nM, bovine adrenal medulla glands
Excerpt: as §3, §4

COc1cccc(-c2cc(=O)c3ccccc3o2)c1N [PD98059]
effect on TVP1022-induced ERK phosphorylation ([1]; PD98059 30 µM pre-incubation 30 min): abolished
effect on TVP1022-induced increase of MAPK phosphorylation ([2]; PD98059 30 µM pretreatment 30 min, TVP1022 20 µM): significantly blocked

CCC1(C2=NCCN2)Cc2ccccc2O1 (stereo not drawn) [efaroxan]
effect on TVP1022-suppressive effects on caspase 3 [3]: markedly reversed
effect on TVP1022-mediated increases in p42 and p44 MAPK phosphorylation ([1]; efaroxan 10 µM pre-incubation, TVP1022 10 and 20 µM): antagonized
effect on TVP1022-induced MAPK activation ([2]; efaroxan 10 µM pre-incubation 30 min, TVP1022 20 µM): abolished
effect on moxonidine-induced phosphorylation of p42 and p44 MAPK ([2]; efaroxan 10 µM pre-incubation, moxonidine 1 µM): abolished
effect on TVP1022-induced cytoprotective effect (TUNEL) [4]: markedly prevented

c1ccc2c(c1)OCC(C1=NCCN1)O2 (stereo not drawn) [idazoxan, reference compound]
IC50 (I2 imidazoline receptor; 30 min 22°C): 16 nM
Ki (I2 imidazoline receptor; Cheng Prusoff equation): 10 nM

COc1nc(C)nc(Cl)c1N=C1NCCN1 [monoxidine, moxonidine]
effect on phosphorylation of p42 and p44 MAPK ([2]; 1 µM, 30 min): increased

C1COC(NC(C2CC2)C2CC2)=N1 [rilmenidine, reference compound]
IC50 (I1 imidazoline receptor; 60 min 22°C): 160 nM
Ki (I1 imidazoline receptor; Cheng Prusoff equation): 84 nM
